Reference: patent US20260216294A1, “BETA 2-ADRENERGIC RECEPTOR AGONISTS FOR TREATMENT OR PREVENTION OF MUSCLE WASTING” (ATROGI AB, priority 2023, published 2026)

Tests used:
[1] = tested on: L6-myotubes; assay: Glucose uptake in differentiated L6-myotubes (Biological Example 2); assay type: cell-based; conditions: for Emax at 10 µM: read-out: Biological example 2 (GU)
Summary of the method: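 Differentiated L6 myotubes were serum-starved overnight in 0.5% fatty-acid-free BSA and then stimulated with compound or isoprenaline at 1×10^−5 M final. After 1 h 40 min cells were washed and re-dosed in glucose-free medium. Twenty minutes later, uptake of 50 nM ^3H-2-deoxyglucose over 10 min was measured by scintillation counting of NaOH lysates.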

[2] = tested on: L6-myotubes; assay: Measurement of intracellular cAMP levels in differentiated L6-myotubes (Biological Example 3); assay type: cell-based; conditions: for Emax at 10 µM: 0.25 h
Summary of the method: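 Serum-starved differentiated L6 myotubes stimulated 15 min with test compound at 1×10^−5 M final (isoprenaline as reference) in HBSS with 1% BSA, 5 mM HEPES, 1 mM IBMX, pH 7.4. Cells EtOH-extracted, lysed, and intracellular cAMP measured by AlphaScreen.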

[3] = glucose uptake in differentiated L6-myotubes, compound at 10 μM, activity relative to isoproterenol at 10 μM
[4] = intracellular cAMP in differentiated L6-myotubes, compound at 10 μM, activity relative to isoproterenol at 10 μM
[5] = glucose uptake, compound at 10 μM relative to isoproterenol at 10 μM
[6] = intracellular cAMP, compound at 10 μM relative to isoproterenol at 10 μM

| Structure (SMILES) | Emax at 10 µM [1, 3] [%] | Emax at 10 µM [2, 4] [%] | Emax at 10 µM [1, 5] [%] | Emax at 10 µM [2, 6] [%] | also measured |
| --- | --- | --- | --- | --- | --- |
| CC(C)(CC[C@H]1CC[C@@H](O)CC1)NC[C@H](O)c1ccccc1F [Compound 320, (R)-2-{1,1-dimethyl-3-[(1s,4R)-4-hydroxycyclohexyl]propylamino}-1-(o-fluorophenyl)-1-ethanol] | > 75 | 25 to 50 |  |  |  |
| CC(C)(NC[C@H](O)c1cncc(F)c1)[C@H]1CC[C@H](NS(C)(=O)=O)CC1 [Compound 345, (R)-1-(5-fluoro-3-pyridyl)-2-{1-methyl-1-[(1r,4R)-4-(mesylamino)cyclohexyl]ethylamino}-1-ethanol] | 25 to 50 | < 25 |  |  |  |
| CC(=O)N[C@H]1CC[C@@H](CC(C)(C)NC[C@H](O)c2cccc(C#N)n2)CC1 [Compound 421] | > 75 | < 25 |  |  |  |
| O[C@H](c1cccc(F)c1)[C@H]1CC[C@H](Cc2ccc(Cl)cc2)N1 [Compound 393, (R)-{(2R,5R)-5-[(p-chlorophenyl)methyl]-2-pyrrolidinyl}(m-fluorophenyl)methanol] | > 75 | < 25 |  |  |  |
| CCC[C@@H]1CCC[C@H]([C@@H](O)c2ccccc2F)N1 [Compound 107, (S)-[(2R,6R)-6-propyl-2-piperidyl](o-fluorophenyl)methanol] |  |  | 25 to 50 | < 25 |  |
| CS(=O)(=O)N[C@H]1CC[C@H](CNC[C@H](O)c2cncc(F)c2)CC1 [Compound 313] | 25 to 50 | < 25 |  |  |  |
| O[C@H](c1cccc(F)c1)C12CCC(Cc3ccc(OC(F)(F)F)cc3)(CC1)N2 [Compound 500, (S)-(m-fluorophenyl){4-[(p-trifluoromethoxyphenyl)methyl]-7-azabicyclo[[2.2.1]]hept-1-yl}methanol] | < 25 | < 25 |  |  |  |
| CCCCCCCCNCC(O)c1ccc(O)cc1 (centres unmarked) [Compound 18, 1-(p-hydroxyphenyl)-2-(octylamino)-1-ethanol] |  |  | 25 to 50 | < 25 |  |
| CCCCNC[C@H](O)c1ccnc(N)n1 [Compound 73, (S)-1-(2-amino-4-pyrimidinyl)-2-(butylamino)-1-ethanol] |  |  | 25 to 50 | < 25 |  |
| CCC[C@@H]1CC[C@H]([C@H](O)c2cncc(F)c2)N1 [Compound 161] |  |  |  |  | Biological example 2 (GU) [1, 5]: + (if it is between 50 and 25% it is denoted with +); Biological example 3 (CAMP) [2, 6]: − (if it less than 25% it is denoted with −) |
| CCCC(C)NC(C)C(O)c1ccc(O)cc1 (centres unmarked) [Compound 13, 1-(p-hydroxyphenyl)-2-(1-methylbutylamino)-1-propanol] |  |  | 50 to 75 | < 25 |  |
| CCC[C@@H]1CCCC[C@H]([C@@H](O)c2cncc(F)c2)N1 [Compound 218, (S)-[(2R,7R)-7-propyl-2-azepanyl](5-fluoro-3-pyridyl)methanol] | < 25 | < 25 |  |  |  |
| O[C@H](c1cccc(F)c1)C12CCC(CCc3ccc(OC(F)(F)F)cc3)(CC1)N2 [Compound 546, (R)-(m-fluorophenyl){4-[2-(p-trifluoromethoxyphenyl)ethyl]-7-azabicyclo[[2.2.1]]hept-1-yl}methanol] | < 25 | < 25 |  |  |  |
| CC(C)(C[C@H]1CC[C@@H](NS(C)(=O)=O)CC1)NC[C@H](O)c1cccc(C(F)(F)F)n1 [Compound 463] | 50 to 75 | < 25 |  |  |  |
| CCS(=O)(=O)N[C@H]1CC[C@@H](CC(C)(C)NC[C@H](O)c2cncc(F)c2)CC1 [Compound 524] | 50 to 75 | < 25 |  |  |  |
| CC1(C)CCC[C@H]([C@H](O)c2cccc(Cl)c2)N1 [Compound 165] |  |  | 25 to 50 | < 25 |  |
| CC12CCC([C@@H](O)c3ccccc3F)(CC1)N2 [Compound 180, (S)-(o-fluorophenyl)(4-methyl-7-azabicyclo[[2.2.1]]hept-1-yl)methanol] |  |  | > 75 | < 25 |  |
| CC12CC(C1)[C@H]([C@H](O)c1cccc(N)c1F)N2 [Compound 241, (R)-{(R)-1-methyl-2-azabicyclo[2.1.1]hex-3-yl}(3-amino-2-fluorophenyl)methanol] | > 75 | < 25 |  |  |  |
| CC(=O)N(Cc1ccccc1)[C@H]1CC[C@@H](C[C@@H]2CC[C@H]([C@@H](O)c3cccc(F)c3)N2)CC1 [Compound 479, N-[(1R,4s)-4-({(2S,5R)-5-[(S)-(m-fluorophenyl) hydroxymethyl]-2-pyrrolidinyl}methyl)cyclohexyl]-N-benzylacetamide] | < 25 | < 25 |  |  |  |
| CCCCNC[C@H](O)c1cccc(F)c1 [Compound 47, (R)-2-(butylamino)-1-(m-fluorophenyl)-1-ethanol] |  |  | 50 to 75 | < 25 |  |

| Structure (SMILES) | Emax at 10 µM [1, 3] [%] | Emax at 10 µM [2, 4] [%] | Emax at 10 µM [1, 5] [%] | Emax at 10 µM [2, 6] [%] | also measured |
| --- | --- | --- | --- | --- | --- |
| CC(=O)N[C@H]1CC[C@H](CC(C)(C)NC[C@H](O)c2cccc(C#N)n2)CC1 [Compound 425] | > 75 | 25 to 50 |  |  |  |
| CNS(=O)(=O)[C@H]1CC[C@@H](CC(C)(C)NC[C@H](O)c2cncc(F)c2)CC1 [Compound 495] | 50 to 75 | < 25 |  |  |  |
| CS(=O)(=O)Nc1ccc(CC23CCC([C@H](O)c4cccc(F)c4)(CC2)N3)cc1 [Compound 475, (R)-(m-fluorophenyl)(4-{[p-(mesylamino)phenyl]methyl}-7-azabicyclo[[2.2.1]]hept-1-yl)methanol] | 50 to 75 | < 25 |  |  |  |
| CC(C)(C[C@H]1CC[C@H](S(N)(=O)=O)CC1)NC[C@H](O)c1cccc(F)c1 [Compound 516, (1R,4r)-4-{2-[(R)-2-(m-fluorophenyl)-2-hydroxyethylamino]-2-methylpropyl} cyclohexanesulfonamide] | > 75 | < 25 |  |  |  |
| CC(=O)N[C@H]1CC[C@@H](CC(C)(C)NC[C@@H](O)c2cccc(C#N)n2)CC1 [Compound 423] | < 25 | < 25 |  |  |  |
| CCCCNCC(O)c1ccc(F)c(N)c1 (centres unmarked) [Compound 44, 1-(3-amino-4-fluorophenyl)-2-(butylamino)-1-ethanol] |  |  | 50 to 75 | < 25 |  |
| CC(C)(NC[C@H](O)c1cncc(F)c1)[C@H]1CC[C@H](OCC(=O)O)CC1 [Compound 419] | 50 to 75 | < 25 |  |  |  |
| COC(=O)[C@H]1CC[C@@H](C(C)(C)NC[C@H](O)c2cncc(F)c2)CC1 [Compound 321, (1S,4s)-8-[(R)-2-(5-fluoro-3-pyridyl)-2-hydroxyethylamino]-7-methoxy-p-menthan-7-one] | 50 to 75 | < 25 |  |  |  |
| CC(C)(C[C@H]1CC[C@@H](NS(=O)(=O)C(F)(F)F)CC1)NC[C@H](O)c1cccc(F)c1 [Compound 493, (R)-2-{1,1-dimethyl-2-[(1s,4S)-4-(trifluoromesylamino)cyclohexyl]ethylamino}-1-(m-fluorophenyl)-1-ethanol] | 25 to 50 | < 25 |  |  |  |
| O[C@@H](c1ccccc1F)C12CCC(CCc3cccnc3)(CC1)N2 [Compound 444, (R)-(o-fluorophenyl){4-[2-(3-pyridyl)ethyl]-7-azabicyclo[[2.2.1]]hept-1-yl}methanol] |  | 50 to 75 |  |  | Biological example 2 (GU) [1, 3]: +++ (If a compound at 10 μM shows activity of more than 75% of that of isoproterenol at 10 μM, the activity is denoted with +++) |
| CCC[C@H]1CCC[C@H]([C@@H](O)c2ccc(F)cc2)N1 [Compound 105] |  |  | 25 to 50 | < 25 |  |
| CCC[C@H]1CCC[C@H]([C@@H](O)c2cc(F)cc(F)c2)N1 [Compound 66] |  |  | 25 to 50 | < 25 |  |
| CS(=O)(=O)N(Cc1ccccc1)CC12CCC([C@H](O)c3cccc(F)c3)(CC1)N2 [Compound 537, (R)-(4-{[(benzyl)-N-mesylamino]methyl}-7-azabicyclo[[2.2.1]]hept-1-yl)(m-fluorophenyl)methanol] | 50 to 75 | 25 to 50 |  |  |  |
| CC1(C)CC[C@@H]([C@@H](O)c2cccc(O)c2)N1 [Compound 143] |  |  | < 25 | < 25 |  |
| CC(C)(C[C@H]1CC[C@@H](O)CC1)NC[C@H](O)c1cccc(F)c1 [Compound 302, (R)-2-{1,1-dimethyl-2-[(1s,4S)-4-hydroxycyclohexyl]ethylamino}-1-(m-fluorophenyl)-1-ethanol] | 50 to 75 | < 25 |  |  |  |
| CCCCNCC(O)c1ccc(F)c(N)c1F (centres unmarked) [Compound 43, 1-(3-amino-2,4-difluorophenyl)-2-(butylamino)-1-ethanol] |  |  | > 75 | < 25 |  |
| CC(C)(NC[C@H](O)c1cncc(F)c1)[C@H]1CC[C@H](N)CC1 [Compound 344] | < 25 | < 25 |  |  |  |
| COc1ccc(C[C@H]2CC[C@H]([C@H](O)c3cncc(F)c3)N2)cc1 [Compound 379, (R)-{(2R,5R)-5-[(p-methoxyphenyl)methyl]-2-pyrrolidinyl}(5-fluoro-3-pyridyl)methanol] | > 75 | < 25 |  |  |  |
| CC(C)(C)NC[C@H](O)c1cccc(C#N)n1 [Compound 387, 6-[(S)-2-(tert-butylamino)-1-hydroxyethyl]-2-pyridinecarbonitrile] | > 75 | 25 to 50 |  |  |  |
| CC1(C)CC[C@H]([C@@H](O)c2cncc(O)c2)N1 [Compound 166, 5-{(S)-[(R)-5,5-dimethyl-2-pyrrolidinyl] hydroxymethyl}-3-pyridinol] |  |  | 25 to 50 | < 25 |  |
